From patent publication US20100160438A1, “NOVEL USE OF A NUTRACEUTICAL COMPOSITION IN ANIMAL FEED” (priority 2006, published 2010)

Legend:
[1] = tested on: ileo-rectal anastomosed piglets; experiment: ileal apparent digestibility of nitrogen, energy and amino acids in ileo-rectal anastomosed piglets; assay type: in vivo, Large White×Landrace×Piétrain piglets; conditions: for ileal apparent lysine digestibility / ileal apparent threonine digestibility: mean ± σ
Procedure: Ten Large White×Landrace×Piétrain piglets were used. The animals were obtained from the GAEC Leclerc, F-68150 Ostheim and were 60 days old at the beginning of the experiment.
Each animal was subjected to an ileo-rectal anastomosis according to the techniques described by Laplace et al. (1994). After surgery piglets were housed individually in stainless-steel metabolic cages in an animal room under controlled temperature (22° C.), humidity (50%), ventilation (1100 m3/h) and lighting (12 hours light/12 hours darkness cycle). […] Meanwhile they were fed ad libitum a vegetal based diet for piglets and had free access to tap water.
During the experimental period, piglets were fed each and alternatively the vegetal based diet supplemented or not with 0.5% benzoic acid.
An indigestible tracer, chromium oxide, was added at a concentration of 0.4% to all the diets in order to measure ileal apparent digestibility.
The experience was composed of 2 periods of 12 days each divided in 10 adaptation days and in 2 ileal content sampling days.
Each animal was fed alternatively with each diet, so that each diet was tested 10 times.
For the digestibility estimations, samples of ileal content were collected daily, during the 2 sampling days, from 8 AM to 3 PM, as soon as they were produced. Immediately after each sampling, the collected contents were weighed and frozen at −80° C. All the daily samples from the same piglet were bulked. Before analysis the samples were freeze dried and grounded to a fine powder. A total of […] samples were obtained for each diet.
The dry matter contents of the freeze-dried samples were determined after drying overnight at 105° C., 20 g of the diets and 15 g of the ileal samples, according to the standard Association of Official Analytical Chemists (AOAC) procedure (1990).
The diets and ileal samples chromium oxide levels were determined by inductively coupled plasma-atomic emission spectrometry (ICP) after mineralization at 350° C. during 20 min with oxidant reagent.
Total energy levels were determined on the freeze-dried diets and ileal contents using a calorimeter IKA C7000.
Total nitrogen concentrations were determined on the freeze-dried diets and ileal contents using a nitrogen analyzer LECO FP-428.
Total amino acids were determined after an acidic hydrolysis on the freeze-dried diets and intestinal contents. Tryptophan analysis was omitted. Cys and Met were analyzed as cysteic acid and methionine sulfone after oxidation with formic acid and hydrogen peroxide followed by an acidic hydrolysis at 110° C. with 6 N HCl. All the other amino acids were analyzed after an acidic hydrolysis at 110° C. with 6 N HCl.
Individual amino acid concentrations were measured after derivation using Waters AccQ.Fluor reagent and quantified by reversed-phase HPLC by fluorescence detection after elution on a Pico.Tag C18 column.
Correcting with the dry matter, the chromium oxide and the diet tested parameter concentrations, all the tested parameter levels of the freeze-dried ileal contents were expressed in % apparent digestibility using the following formula:
[formula] • Ci=parameter concentration (% dry matter) in the ileal content • Cd=parameter concentration (% dry matter) in the diet • Mi=chromium oxide concentration (% dry matter) in the ileal content • Md=chromium oxide concentration (% dry matter) in the diet
For each test group, statistic analysis of the data involved the calculation of the mean and standard deviation of the mean as well as an analysis of variance followed by Student's “t” test to assess the significance of group differences between group A and benzoic acid supplemented group B for a probability of 10% for the amino acids and 5% for nitrogen and energy.

[2] = tested on: piglets; experiment: animal health status controlled daily during the feeding trial; assay type: in vivo, Large White×Landrace×Piétrain piglets; conditions: piglets fed alternately diet with or without 0.5% benzoic acid, 2 periods of 12 days
Text: The animal health status was controlled daily.
At the beginning of the study all the piglets had recovered from the anesthesia and the surgery. […] All the feedings and all the sampling could be achieved.

[3] = 0.5% benzoic acid in diet vs non-supplemented diet, statistically non-significant (p<0.10)
[4] = 0.5% benzoic acid in diet vs non-supplemented diet, statistically significant (p<0.05)
[5] = 0.5% benzoic acid in diet vs non-supplemented diet, statistically significant (p<0.10)
[6] = piglets, Benzoic acid 0.5% in diet
[7] = piglets, diet supplemented with 0.5% benzoic acid, mean ± SD
[8] = piglets, diet supplemented with 0.5% benzoic acid
[9] = piglets, diet supplemented with 0.5% benzoic acid, listed as Benzoic acid

O=C(O)c1ccccc1 [benzoic acid]
increase of ileal apparent sulfured amino acids digestibility compared to the control group [1, 3]: 2.9%
increase of ileal apparent threonine digestibility compared to the control group [1, 3]: 2.7%
increase of ileal apparent energy digestibility compared to the control group [1, 4]: 4.4%
increase of ileal apparent total nitrogen digestibility compared to the control group [1, 4]: 5.3%
increase of ileal apparent branched chain amino acids digestibility compared to the control group [1, 5]: 2.9%
increase of ileal apparent essential amino acids digestibility compared to the control group [1, 5]: 2.9%
increase of ileal apparent lysine digestibility compared to the control group [1, 5]: 3.5%
increase of ileal apparent total amino acids digestibility compared to the control group [1, 5]: 2.9%
Mean digestibility ± σ, Ala (ileal apparent) [1, 6]: 75.3 ± 3.7%
Mean digestibility ± σ, Arg (ileal apparent) [1, 6]: 87.0 ± 1.8%
Mean digestibility ± σ, Asp + Asn (ileal apparent) [1, 6]: 79.1 ± 3.2%
Mean digestibility ± σ, Cys (ileal apparent) [1, 6]: 79.7 ± 4.4%
Mean digestibility ± σ, Glu + Gln (ileal apparent) [1, 6]: 86.7 ± 2.1%
Mean digestibility ± σ, Gly (ileal apparent) [1, 6]: 75.1 ± 4.4%
Mean digestibility ± σ, His (ileal apparent) [1, 6]: 86.4 ± 2.5%
Mean digestibility ± σ, Hyp (ileal apparent) [1, 6]: 41.4 ± 13.4%
Mean digestibility ± σ, Ile (ileal apparent) [1, 6]: 81.5 ± 3.6%
Mean digestibility ± σ, Leu (ileal apparent) [1, 6]: 84.5 ± 2.4%
Mean digestibility ± σ, Met (ileal apparent) [1, 6]: 80.7 ± 3.5%
Mean digestibility ± σ, Phe (ileal apparent) [1, 6]: 84.5 ± 2.3%
Mean digestibility ± σ, Pro (ileal apparent) [1, 6]: 85.8 ± 2.4%
Mean digestibility ± σ, Ser (ileal apparent) [1, 6]: 82.6 ± 2.9%
Mean digestibility ± σ, Tyr (ileal apparent) [1, 6]: 80.8 ± 2.8%
Mean digestibility ± σ, Val (ileal apparent) [1, 6]: 79.5 ± 3.6%
ileal apparent branched chain amino acids digestibility [1, 7]: 82.7±2.8%
ileal apparent energy digestibility [1, 7]: 72.6±4.7%
ileal apparent essential amino acids digestibility [1, 7]: 82.7±2.6%
ileal apparent sulfured amino acids digestibility [1, 7]: 80.1±3.5%
ileal apparent total amino acids digestibility [1, 7]: 82.0±2.7%
ileal apparent total nitrogen digestibility [1, 7]: 77.7±3.1%
ileal apparent lysine digestibility [1, 8]: 82.3±2.8%
ileal apparent threonine digestibility [1, 8]: 78.0±3.9%
ileal apparent lysine digestibility [1, 9]: 82.3 ± 2.8%
ileal apparent threonine digestibility [1, 9]: 78.0 ± 3.9%
symptoms of illness or toxicosis [2]: None of the animals showed during the experimental period, any symptoms of illness or toxicosis
